We go through 25 compounds from patent publication US5028733A, “Prostaglandins” (National Research Development Corporation, priority 1980, dated 1991).

In general, Kb refers to the equilibrium dissociation constant of an antagonist, usually derived from a functional assay.

Type in all cases: cell-based
For assay [1], the system named is rabbit aorta. Description: Rabbit aorta strip, antagonism of contraction by 11,9-(epoxymethano) PGH2 (affinity constant KB). The conditions noted are these: for Kb: vs 11,9-(epoxymethano) PGH2, 37° C, compound added 30 min before, Gaddum-Schild, read-out: Affinity Constants, Rabbit Aorta (KB) (converted). The method, then: Spiral strips of thoracic aorta are suspended in Kreb's-Henseleit solution and aerated with 95% O2 /5% CO2 at 37° C. Tension changes are recorded with a Glass FTO3 force transducer. Initially, cumulative dose response curves to 11,9-(epoxymethano) PGH2 (2×10^-9, 1×10^-8, 5×10^-8 and 2.5×10^-7 M) are obtained. In a second experiment the individual compounds are added 30 minutes previous to the addition of the series of agonist doses. In the case of each compound, the affinity constant, KB, for the compound is calculated according to the Gaddum - Schild Equation (based on Law of Mass Action).
(§1) [B]=molar concentration of compound

Another assay deals with T1, human platelets (Homo sapiens, UniProt P21731).
T1 construct: Platelet-rich plasma is obtained from fresh, citrated human blood; endogenous in cells; host or cells: human platelets in platelet-rich plasma
T1 sequence (P21731 1-343): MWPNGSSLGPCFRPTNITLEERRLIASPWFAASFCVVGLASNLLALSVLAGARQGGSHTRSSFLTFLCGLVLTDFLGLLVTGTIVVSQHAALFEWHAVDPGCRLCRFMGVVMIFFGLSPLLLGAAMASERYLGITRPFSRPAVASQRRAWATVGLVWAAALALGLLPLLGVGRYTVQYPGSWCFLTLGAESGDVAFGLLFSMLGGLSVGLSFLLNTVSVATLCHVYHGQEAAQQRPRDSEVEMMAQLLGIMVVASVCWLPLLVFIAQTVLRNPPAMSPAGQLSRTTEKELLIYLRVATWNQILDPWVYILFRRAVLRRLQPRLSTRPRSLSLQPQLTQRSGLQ
The assay is described as follows: Human platelet system, antagonism of aggregation by 11,9-(epoxymethano) PGH2 (affinity constant KB). Conditions: for Kb: vs 11,9-(epoxymethano) PGH2, compound added 5 min before, Gaddum-Schild, read-out: Affinity Constants, Human Platelets (KB) (converted). The method, then: Platelet-rich plasma is obtained from fresh, citrated human blood. Addition of the 11,9-(epoxymethano) PGH2 (1×10^-7 to 5×10^-7 M) causes immediate aggregation recorded as an increase in light transmission (600 nm). In a second experiment the individual compounds are added five minutes previous to the addition of the PGH2 analogue. The dose of the PGH2 analogue added is then increased to a level which gives a similar response to that obtained in the absence of antagonist. The affinity constant, KB, for the compound is calculated according to the Gaddum - Schild Equation (based on Law of Mass Action).
as §1

Another assay relates to platelet. The assay is described as follows: Block of the aggregatory action of arachidonic acid on platelets. The conditions noted are these: in words.
In assay [2] the test system is rabbit aorta. The assay is described as follows: Block of the contractile action of noradrenaline in the rabbit aorta strip test. The conditions noted are these: in words.

Turning to `CC1(C)[C@H]2C[C@H](C=NNC(=S)Nc3ccccc3)[C@@H](C/C=C\CCCC(=O)O)[C@@H]1C2`, the Kb was 1670 nM with rabbit aorta [1] and 2860 nM at human platelets. Consider `CC(=NNC(=O)Nc1ccccc1)[C@H]1C[C@H]2C[C@@H]([C@@H]1C/C=C\CCCC(=O)O)C2(C)C`, for which the Kb is 357 nM in the assay with rabbit aorta [1] and 909 nM on human platelets.

For `O=C(O)CCCC=CCC1C(O)CCC1C=NOCc1ccc(F)cc1` (centres unmarked), the Kb in the assay with rabbit aorta [1] is 2500 nM. For the compound `O=C(O)CCC/C=C\C[C@H]1[C@H]2CC[C@H](C2)[C@@H]1C=NNC(=S)Nc1ccccc1` (relative stereo), the Kb is 526 nM in the assay with rabbit aorta [1] and 263 nM on human platelets. For `CC(=NNC(=S)Nc1cccc(F)c1)[C@H]1[C@@H]2CC[C@@H](C2)[C@@H]1C/C=C\CCCC(=O)O` (relative stereo), the Kb is 70.4 nM in the assay on rabbit aorta [1] and 45.5 nM on human platelets. Take `COc1cccc(NC(=S)NN=C(C)[C@H]2[C@@H]3CC[C@@H](C3)[C@@H]2C/C=C\CCCC(=O)O)c1` (relative stereo): the Kb in the assay with rabbit aorta [1] was 95.2 nM; at human platelets, 118 nM.

Regarding `COc1ccc(NC(=S)NN=C(C)[C@H]2[C@@H]3CC[C@@H](C3)[C@@H]2C/C=C\CCCC(=O)O)cc1` (relative stereo), the Kb in the assay with rabbit aorta [1] was 213 nM; on human platelets, 102 nM. Turning to `CC(=NNC(=S)Nc1cccc(C(F)(F)F)c1)[C@H]1[C@@H]2CC[C@@H](C2)[C@@H]1C/C=C\CCCC(=O)O` (relative stereo), the Kb in the assay with rabbit aorta [1] was 118 nM; at human platelets, 189 nM.

In the case of `O=C(O)CCC/C=C\C[C@H]1C2CCC(CC2)[C@@H]1C=NNC(=O)Nc1ccccc1` (relative stereo), the Kb with rabbit aorta [1] was 833 nM. Regarding `COc1ccc(NC(=O)NN=C(C)[C@H]2C3CCC(CC3)[C@@H]2C/C=C\CCCC(=O)O)cc1` (relative stereo), the Kb with rabbit aorta [1] and on human platelets was 55.6 nM each time. In the case of `CC(=NNC(=S)Nc1ccccc1)[C@H]1C2CCC(CC2)[C@@H]1C/C=C\CCCC(=O)O` (relative stereo), the Kb was 83.3 nM in the assay with rabbit aorta [1] and 47.6 nM on human platelets. Take `CC(=NNC(=S)Nc1cccnc1)[C@H]1C2CCC(CC2)[C@@H]1C/C=C\CCCC(=O)O` (relative stereo): the Kb with rabbit aorta [1] was 256 nM; at human platelets, 667 nM.

Regarding `O=C(O)CCC/C=C\C[C@@H]1CC=CC[C@H]1C=NNC(=S)Nc1ccccc1` (relative stereo), the Kb was 1100 nM with rabbit aorta [1] and 500 nM at human platelets. On the same counts, the results for `Cn1c(=NN=C[C@H]2[C@@H]3CC[C@@H](C3)[C@@H]2C/C=C\CCCC(=O)O)sc2ccccc21` (relative stereo) are 1520 nM and 3450 nM. Consider `O=C(O)CCC/C=C\C[C@H]1[C@H]2CC[C@H](C2)[C@@H]1C=NN=C(c1ccccc1)c1ccccc1` (relative stereo), for which, in the assay on rabbit aorta [1], the Kb is 667 nM.

Turning to `O=C(O)CCC/C=C\C[C@H]1[C@H]2CC[C@H](C2)[C@@H]1C=NNc1nc2ccccc2o1` (relative stereo), the values for the antagonist dissociation constant (Kb) in the assay with rabbit aorta [1] and on human platelets were 500 nM and 5560 nM, respectively. Regarding `O=C(O)CCC/C=C\C[C@H]1[C@H]2CC[C@H](C2)[C@@H]1C=NNC(=O)CN(Cc1ccccc1)Cc1ccccc1` (relative stereo), the Kb with rabbit aorta [1] is 833 nM. On to `Cc1ccc(S(=O)(=O)NN=C[C@H]2[C@@H]3CC[C@@H](C3)[C@@H]2C/C=C\CCCC(=O)O)cc1` (relative stereo), for which the Kb is 345 nM in the assay on rabbit aorta [1] and 667 nM on human platelets. Turning to `O=C(O)CCC/C=C\C[C@H]1[C@H]2CC[C@H](C2)[C@@H]1C=NOCCOC(c1ccccc1)c1ccccc1` (relative stereo), the results for the Kb in the assay on rabbit aorta [1] and at human platelets were 10000 nM and 4350 nM, respectively. On to `O=C(O)CCC/C=C\C[C@@H]1CC=CC[C@H]1C=NOCc1ccc(F)cc1` (relative stereo), for which the antagonist equilibrium constant (Kb) is 385 nM in the assay on rabbit aorta [1] and 8330 nM at human platelets. For the compound `O=C(O)CCC/C=C\C[C@H]1[C@H]2CC[C@H](C2)[C@@H]1C=NNC(=S)NCc1ccccc1` (relative stereo) [Example 1, 5-endo-(6'-Carboxyhex-2'Z-enyl)-6-exo-[N-(benzylthiocarbamoyl)-hydrazonomethyl]-bicyclo [2,2,1] heptane], the “antagonist in the rabbit aorta strip test” value in the assay with rabbit aorta [1] (in words) is given as “pure antagonists in the rabbit aorta strip test”. Besides, the “antagonist in the platelet test” value on human platelets (in words) is on record as “antagonists in the platelet test”. Besides, the “aggregatory action of arachidonic acid” value in the assay on platelet is on record as “block the aggregatory action of arachidonic acid”. In the assay with rabbit aorta [2], the “contractile action of noradrenaline (α-adrenoceptors)” value is listed as “do not block the contractile action of noradrenaline”. `CCC(=NNC(=S)Nc1ccccc1)[C@H]1[C@@H]2CC[C@@H](C2)[C@@H]1C/C=C\CCCC(=O)O` (relative stereo) [Example 3, 5-endo-(6'-Carboxyhex-2'Z-enyl)-6-exo-{1'-[N-(phenylthiocarbamoyl)-hydrazono]-propyl}-bicyclo [2,2,1] heptane]: at human platelets, the Kb is 256 nM. On to `O=C(O)CCC/C=C\C[C@H]1[C@H]2CC[C@H](C2)[C@@H]1C=NNC(=S)NCc1ccccc1` (relative stereo) [drawing 41], for which the Kb in the assay with rabbit aorta [1] was 526 nM; at human platelets it was 1280 nM. Turning to `CC(=NNC(=S)Nc1ccccc1)[C@H]1[C@@H]2CC[C@@H](C2)[C@@H]1C/C=C\CCCC(=O)O` (relative stereo) [drawing 42], the figures for the Kb in the assay on rabbit aorta [1] and at human platelets were 90.9 nM and 50 nM, respectively. As for `CC1(C)[C@H]2C[C@H](C/C=C\CCCC(=O)O)C(C=NNC(=O)Nc3ccccc3)[C@@H]1C2` (single isomer, unassigned), the antagonist equilibrium constant (Kb) in the assay with rabbit aorta [1] was 333 nM; at human platelets, 2000 nM.
